The values that follow are results of earlier work, collected in paper PMC10247525 (Colloids and surfaces. B, Biointerfaces, 2023).

For data set [1] the following is noted: cited from earlier work.
The conditions of data set [2]: cited from earlier work. This is another data set of the same source.
The conditions of data set [3]: cited from earlier work. This is another data set of the same source.

≈ marks a conversion by molar mass, not a printed value. Where “and” joins values, the source holds several entries; their conditions need not be identical. Equal values may be shown once.

Turning to `O=c1[nH]cc(F)c(=O)[nH]1` [5-Fluorouracil], the solubility in water in data set [1] was 12.5 mg/ml and 96 mM. In addition, the solubility in methanol in data set [2] was 18 mg/mL (≈ 138 mM).

For `COc1cccc2c1C(=O)c1c(O)c3c(c(O)c1C2=O)C[C@@](O)(C(=O)CO)C[C@@H]3O[C@H]1C[C@H](N)[C@H](O)[C@H](C)O1` [Doxorubicin], the solubility in water in data set [1] was 52 mg/ml and 90 mM. In data set [2], the solubility in methanol entry is “sparingly”.

Turning to `CC(=O)O[C@H]1C(=O)[C@@]2(C)[C@H]([C@H](OC(=O)c3ccccc3)[C@]3(O)C[C@H](OC(=O)[C@H](O)[C@@H](NC(=O)c4ccccc4)c4ccccc4)C(C)=C1C3(C)C)[C@]1(OC(C)=O)CO[C@@H]1C[C@@H]2O` [Paclitaxel], in data set [3], the “logP (octanol/water)” value is 4. In data set [1], the solubility in water entry was “sparingly”. For the same molecule, in data set [2], the solubility in methanol was 50 mg/mL (≈ 58.6 mM).
